Data on 23 molecules can be found in patent US20250171420A1 (Monte Rosa Therapeutics, Inc., priority 2022, published 2025).

One assay has as its target T1, CK1α (Homo sapiens, UniProt P48729).
T1 construct: HEK293 clonal lines with CRISPR KI HiBiT tag on CSNK1A1
The assay can be described thus: CK1α NanoBit Assay (HiBiT-tagged CSNK1A1, HEK293 clonal lines). Conditions: HEK293 HiBiT-CSNK1A1/LgBiT cells, 24 h incubation. It is filed as cell-based. The essentials:
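HEK293 clones carrying a CRISPR knock-in HiBiT tag on CSNK1A1 and stably expressing LgBiT are treated with compound for 24 hours at 37° C, 5% CO2, then read by luminescence. Response is normalized as 100*(S−N)/(P−N) against plate negative and positive controls, and DC50 values are derived.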
(With HiBiT, luminescence reflects the tagged protein that the partner subunit can reach.)

The next assay addresses CRBN/DDB1 (Homo sapiens, UniProt Q96SW2). Kind of assay: HTRF binding assay (displacement of Cy5-thalidomide probe from CRBN/DDB1). Conditions: CRBN/DDB1 2.5 nM, Cy5-Thalidomide 100 nM, 30 min; geometric mean; read-out: HTRF_Thali_Disp_DR_geo_IC50. A digest of the protocol: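 Compounds in a 10-point threefold dilution series were incubated 30 min at ambient temperature with 2.5 nM CRBN/DDB1, 100 nM Cy5-thalidomide probe and terbium anti-His donor (HEPES/NaCl/TCEP/EDTA/Tween20 buffer). IC50 came from 4-parameter fits of the 665/620 nm HTRF ratio; Ki used Cheng-Prusoff on geometric-mean IC50.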

T1 sequence (P48729 whole entry): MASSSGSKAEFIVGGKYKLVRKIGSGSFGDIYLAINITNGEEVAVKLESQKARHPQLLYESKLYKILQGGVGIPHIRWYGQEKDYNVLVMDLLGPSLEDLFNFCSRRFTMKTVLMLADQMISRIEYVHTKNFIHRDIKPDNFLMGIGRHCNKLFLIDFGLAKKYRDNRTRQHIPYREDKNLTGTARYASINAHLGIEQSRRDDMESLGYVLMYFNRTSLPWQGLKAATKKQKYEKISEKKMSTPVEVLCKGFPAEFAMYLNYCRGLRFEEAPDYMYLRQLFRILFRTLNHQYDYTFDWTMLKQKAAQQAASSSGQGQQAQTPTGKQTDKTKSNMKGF
T1 sequence (Q96SW2 whole entry, further chain): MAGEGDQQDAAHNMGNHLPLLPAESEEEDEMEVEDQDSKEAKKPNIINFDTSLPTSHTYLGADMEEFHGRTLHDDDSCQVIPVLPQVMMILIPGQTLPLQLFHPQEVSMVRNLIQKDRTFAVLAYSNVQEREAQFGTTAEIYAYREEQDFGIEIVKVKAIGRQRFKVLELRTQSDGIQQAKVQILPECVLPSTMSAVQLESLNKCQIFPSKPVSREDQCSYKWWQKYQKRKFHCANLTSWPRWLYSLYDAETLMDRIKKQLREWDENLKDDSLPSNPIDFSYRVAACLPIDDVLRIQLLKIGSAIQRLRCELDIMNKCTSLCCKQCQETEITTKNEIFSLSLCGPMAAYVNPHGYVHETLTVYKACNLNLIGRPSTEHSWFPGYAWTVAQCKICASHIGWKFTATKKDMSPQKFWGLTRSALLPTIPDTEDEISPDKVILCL
T1 sequence (Q16531 2-1140 partner limits assumed): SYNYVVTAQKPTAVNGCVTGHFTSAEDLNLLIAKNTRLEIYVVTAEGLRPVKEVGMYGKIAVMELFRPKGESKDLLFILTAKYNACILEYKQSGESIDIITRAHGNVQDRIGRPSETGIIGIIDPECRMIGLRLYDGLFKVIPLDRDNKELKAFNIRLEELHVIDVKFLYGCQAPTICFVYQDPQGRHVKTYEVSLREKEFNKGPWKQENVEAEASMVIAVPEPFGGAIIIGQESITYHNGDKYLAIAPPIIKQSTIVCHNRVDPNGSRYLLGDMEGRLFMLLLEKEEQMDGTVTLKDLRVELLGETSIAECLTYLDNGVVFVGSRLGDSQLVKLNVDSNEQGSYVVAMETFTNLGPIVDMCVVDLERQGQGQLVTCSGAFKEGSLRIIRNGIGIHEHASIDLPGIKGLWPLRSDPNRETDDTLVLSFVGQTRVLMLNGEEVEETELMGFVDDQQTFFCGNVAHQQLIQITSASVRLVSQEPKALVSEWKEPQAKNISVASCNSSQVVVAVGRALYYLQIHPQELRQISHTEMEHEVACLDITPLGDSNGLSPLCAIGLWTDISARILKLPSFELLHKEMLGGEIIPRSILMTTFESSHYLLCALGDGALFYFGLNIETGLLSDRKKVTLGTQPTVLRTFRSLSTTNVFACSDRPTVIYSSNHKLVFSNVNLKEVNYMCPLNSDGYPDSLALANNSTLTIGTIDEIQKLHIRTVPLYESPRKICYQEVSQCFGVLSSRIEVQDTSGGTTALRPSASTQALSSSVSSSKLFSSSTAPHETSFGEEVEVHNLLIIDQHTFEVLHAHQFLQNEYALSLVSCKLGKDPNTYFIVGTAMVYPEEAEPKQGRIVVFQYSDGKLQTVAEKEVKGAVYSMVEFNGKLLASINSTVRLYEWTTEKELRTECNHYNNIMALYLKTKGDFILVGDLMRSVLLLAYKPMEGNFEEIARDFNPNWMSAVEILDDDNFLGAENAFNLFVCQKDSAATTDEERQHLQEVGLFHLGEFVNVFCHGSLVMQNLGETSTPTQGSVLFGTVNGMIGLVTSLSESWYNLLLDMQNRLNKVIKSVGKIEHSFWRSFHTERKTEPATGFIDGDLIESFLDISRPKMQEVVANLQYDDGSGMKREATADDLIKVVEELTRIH
Chain of CRBN/DDB1 (Q96SW2 whole entry, species assumed): as the sequence (Q96SW2 whole entry, further chain) above
Chain of CRBN/DDB1 (Q16531 whole entry partner, species assumed): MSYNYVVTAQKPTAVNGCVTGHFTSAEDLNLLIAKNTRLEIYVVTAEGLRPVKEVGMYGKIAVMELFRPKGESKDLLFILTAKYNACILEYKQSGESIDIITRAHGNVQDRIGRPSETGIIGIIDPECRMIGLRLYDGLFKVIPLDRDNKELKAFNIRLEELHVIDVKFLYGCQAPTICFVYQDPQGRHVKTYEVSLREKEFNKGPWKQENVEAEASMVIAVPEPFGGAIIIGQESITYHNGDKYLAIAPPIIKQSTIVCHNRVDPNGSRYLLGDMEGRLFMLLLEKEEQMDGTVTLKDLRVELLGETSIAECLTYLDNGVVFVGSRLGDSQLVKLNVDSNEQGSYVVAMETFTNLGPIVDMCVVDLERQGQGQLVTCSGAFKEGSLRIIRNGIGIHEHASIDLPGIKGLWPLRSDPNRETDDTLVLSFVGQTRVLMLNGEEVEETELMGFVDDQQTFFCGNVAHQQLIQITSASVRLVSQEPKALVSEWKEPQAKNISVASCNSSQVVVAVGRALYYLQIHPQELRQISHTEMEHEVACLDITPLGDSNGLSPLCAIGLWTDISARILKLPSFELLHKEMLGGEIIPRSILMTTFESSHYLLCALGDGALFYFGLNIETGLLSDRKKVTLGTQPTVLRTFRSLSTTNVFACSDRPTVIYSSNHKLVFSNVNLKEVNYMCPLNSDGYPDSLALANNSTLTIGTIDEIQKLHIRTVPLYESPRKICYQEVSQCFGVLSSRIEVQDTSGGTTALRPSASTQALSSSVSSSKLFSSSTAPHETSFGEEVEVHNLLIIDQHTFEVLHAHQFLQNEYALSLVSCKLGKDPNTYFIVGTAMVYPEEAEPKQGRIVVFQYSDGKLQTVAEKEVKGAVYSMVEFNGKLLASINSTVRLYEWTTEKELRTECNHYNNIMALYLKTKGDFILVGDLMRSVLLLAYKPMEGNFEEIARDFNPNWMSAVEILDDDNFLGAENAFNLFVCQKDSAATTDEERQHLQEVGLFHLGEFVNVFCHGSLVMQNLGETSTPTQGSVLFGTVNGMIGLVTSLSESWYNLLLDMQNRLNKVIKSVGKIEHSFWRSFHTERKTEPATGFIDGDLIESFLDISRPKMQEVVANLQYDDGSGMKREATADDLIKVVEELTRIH

Turning to `O=C1CCC(N2Cc3cc(NC(=O)N4CCc5ccc(C6CCOCC6)cc54)ccc3C2=O)C(=O)N1` (stereo not shown) [Compound 365, N-(2-(2,6-dioxopiperidin-3-yl)-1-oxoisoindolin-5-yl)-6-(tetrahydro-2H-pyran-4-yl)indoline-1-carboxamide], the DC50 at CK1α is 0.1 to 1 µM. The IC50 on CRBN/DDB1 lay within 100 to 1000 nM.

On CK1α, `COCC1c2cc(C)ccc2CN1C(=O)Nc1ccc2c(c1)CN(C1CCC(=O)NC1=O)C2=O` (stereo not shown) [Compound 336, N-(2-(2,6-dioxopiperidin-3-yl)-1-oxoisoindolin-5-yl)-1-(methoxymethyl)-6-methylisoindoline-2-carboxamide] came in with a DC50 of less than 0.1 µM. In addition, on CRBN/DDB1, the IC50 lay in the range of 100 to 1000 nM.

For the molecule `O=C1CCC(N2Cc3cc(NC(=O)N4c5ccc(C(F)(F)F)cc5CC45COC5)ccc3C2=O)C(=O)N1` (stereo not shown) [Compound 298], at CK1α, the DC50 was less than 0.1 µM. Further, the IC50 on CRBN/DDB1 lay in the range of 100 to 1000 nM.

Turning to `O=C1CC[C@H](N2Cc3cc(NC(=O)N4c5ccccc5C[C@@H]4C(F)(F)F)ccc3C2=O)C(=O)N1` (single isomer, unassigned) [Compound 362], the DC50 on CK1α is less than 0.1 µM. Besides, the IC50 on CRBN/DDB1 was 100 to 1000 nM.

On CK1α, `COC[C@@H]1Cc2c(F)cccc2N1C(=O)Nc1ccc2c(c1)CN(C1CCC(=O)NC1=O)C2=O` (stereo partly drawn) [Compound 314, (2S)—N-(2-(2,6-dioxopiperidin-3-yl)-1-oxoisoindolin-5-yl)-4-fluoro-2-(methoxymethyl)indoline-1-carboxamide] displayed a DC50 of less than 0.1 µM. In addition, the IC50 on CRBN/DDB1 lay within 100 to 1000 nM.

The molecule `O=C1CCC(N2Cc3cc(NC(=O)N4Cc5cc(C6CC6)ccc5C45COC5)ccc3C2=O)C(=O)N1` (stereo not shown) [Compound 302, 5-cyclopropyl-N-(2-(2,6-dioxopiperidin-3-yl)-1-oxoisoindolin-5-yl)spiro[isoindoline-1,3′-oxetane]-2-carboxamide] showed a DC50 at CK1α of less than 0.1 µM. In addition, the IC50 at CRBN/DDB1 was in the range of 100 to 1000 nM.

In the case of `O=C1CCC(N2Cc3cc(NC(=O)N4CCc5cccnc54)ccc3C2=O)C(=O)N1` (stereo not shown) [Compound 112, N-(2-(2,6-dioxopiperidin-3-yl)-1-oxoisoindolin-5-yl)-2,3-dihydro-1H-pyrrolo[2,3-b]pyridine-1-carboxamide], the DC50 on CK1α was in the range of 0.1 to 1 µM. Also, the IC50 on CRBN/DDB1 is greater than 1000 nM.

`CNC[C@@H]1Cc2ccccc2N1C(=O)Nc1ccc2c(c1)CN(C1CCC(=O)NC1=O)C2=O` (stereo partly drawn) [Compound 312, (2S)—N-(2-(2,6-dioxopiperidin-3-yl)-1-oxoisoindolin-5-yl)-2-((methylamino)methyl)indoline-1-carboxamide]: the DC50 on CK1α was 0.1 to 1 µM. The IC50 on CRBN/DDB1 lay within 100 to 1000 nM.

As to `COCC1C2c3ccccc3N(C(=O)Nc3ccc4c(c3)CN(C3CCC(=O)NC3=O)C4=O)C12` (stereo not shown) [Compound 320, N-(2-(2,6-dioxopiperidin-3-yl)-1-oxoisoindolin-5-yl)-1-(methoxymethyl)-1a, 6b-dihydrocyclopropa[b]indole-2(1H)-carboxamide], the DC50 at CK1α was less than 0.1 µM. Also, the IC50 on CRBN/DDB1 was 100 to 1000 nM.

`O=C1CCC(N2Cc3cc(NC(=O)N4CCc5ccc(C6COC6)cc54)ccc3C2=O)C(=O)N1` (stereo not shown) [Compound 347, N-(2-(2,6-dioxopiperidin-3-yl)-1-oxoisoindolin-5-yl)-6-(oxetan-3-yl)indoline-1-carboxamide] yielded a DC50 on CK1α of 0.1 to 1 µM. Also, the IC50 at CRBN/DDB1 fell in the range of 100 to 1000 nM.

`O=C1CCC(N2Cc3cc(NC(=O)N4c5ccccc5C[C@H]4COCC(F)(F)F)ccc3C2=O)C(=O)N1` (stereo partly drawn) [Compound 316, (2S)—N-(2-(2,6-dioxopiperidin-3-yl)-1-oxoisoindolin-5-yl)-2-((2,2,2-trifluoroethoxy)methyl)indoline-1-carboxamide] returned a DC50 at CK1α of less than 0.1 µM. Moreover, the IC50 at CRBN/DDB1 lay within 100 to 1000 nM.

`COCC1c2cc(C(F)(F)F)ccc2CN1C(=O)Nc1ccc2c(c1)CN(C1CCC(=O)NC1=O)C2=O` (stereo not shown) [Compound 301] gave a DC50 at CK1α of less than 0.1 µM. Also, the IC50 at CRBN/DDB1 was in the range of 100 to 1000 nM.

On CK1α, `O=C1CCC(N2Cc3cc(NC(=O)N4c5cccc(F)c5C[C@H]4COCC(F)(F)F)ccc3C2=O)C(=O)N1` (stereo partly drawn) [Compound 300, (2S)—N-(2-(2,6-dioxopiperidin-3-yl)-1-oxoisoindolin-5-yl)-4-fluoro-2-((2,2,2-trifluoroethoxy)methyl)indoline-1-carboxamide] came in with a DC50 of less than 0.1 µM. Besides, the IC50 at CRBN/DDB1 lay within 100 to 1000 nM.

In the case of `O=C1CCC(N2Cc3cc(NC(=O)N4CCc5cc(C6COC6)ccc54)ccc3C2=O)C(=O)N1` (stereo not shown) [Compound 346, N-(2-(2,6-dioxopiperidin-3-yl)-1-oxoisoindolin-5-yl)-5-(oxetan-3-yl)indoline-1-carboxamide], the DC50 on CK1α is less than 0.1 µM. The IC50 on CRBN/DDB1 was less than 100 nM.

On CK1α, `O=C1CC[C@@H](N2Cc3cc(NC(=O)N4c5ccccc5C[C@H]4C(F)(F)F)ccc3C2=O)C(=O)N1` (single isomer, unassigned) [Compound 359] displayed a DC50 of less than 0.1 µM. Moreover, at CRBN/DDB1, the IC50 is greater than 1000 nM.

Turning to `O=C1CCC(N2Cc3cc(NC(=O)N4CCOc5ccccc54)ccc3C2=O)C(=O)N1` (stereo not shown) [Compound 285, N-(2-(2,6-dioxopiperidin-3-yl)-1-oxoisoindolin-5-yl)-2H-benzo[b][1,4]oxazine-4(3H)-carboxamide], the DC50 on CK1α lay in the range of 0.1 to 1 µM. Besides, on CRBN/DDB1, the IC50 fell in the range of 100 to 1000 nM.

`NC[C@@H]1Cc2ccccc2N1C(=O)Nc1ccc2c(c1)CN(C1CCC(=O)NC1=O)C2=O` (stereo partly drawn) [Compound 310, (2S)-2-(aminomethyl)-N-(2-(2,6-dioxopiperidin-3-yl)-1-oxoisoindolin-5-yl)indoline-1-carboxamide]: the DC50 on CK1α lay in the range of 0.1 to 1 µM. Further, the IC50 on CRBN/DDB1 was in the range of 100 to 1000 nM.

For `CC1c2ccccc2CCN1C(=O)Nc1ccc2c(c1)CN(C1CCC(=O)NC1=O)C2=O` (stereo not shown) [Compound 216, N-(2-(2,6-dioxopiperidin-3-yl)-1-oxoisoindolin-5-yl)-1-methyl-3,4-dihydroisoquinoline-2(1H)-carboxamide], the DC50 at CK1α is less than 0.1 µM. The IC50 on CRBN/DDB1 was 100 to 1000 nM.

Consider `O=C1CCC(N2Cc3cc(NC(=O)N4CCc5ccc(C6CCOC6)cc54)ccc3C2=O)C(=O)N1` (stereo not shown) [Compound 364, N-(2-(2,6-dioxopiperidin-3-yl)-1-oxoisoindolin-5-yl)-6-(tetrahydrofuran-3-yl)indoline-1-carboxamide], for which the DC50 on CK1α is 0.1 to 1 µM. Further, at CRBN/DDB1, the IC50 was in the range of 100 to 1000 nM.

Turning to `COCC1Cc2cc(C(F)(F)F)ncc2N1C(=O)Nc1ccc2c(c1)CN(C1CCC(=O)NC1=O)C2=O` (stereo not shown) [Compound 321, N-(2-(2,6-dioxopiperidin-3-yl)-1-oxoisoindolin-5-yl)-2-(methoxymethyl)-5-(trifluoromethyl)-2,3-dihydro-1H-pyrrolo[2,3-c]pyridine-1-carboxamide], on CK1α, the DC50 is less than 0.1 µM. At CRBN/DDB1, the IC50 was in the range of 100 to 1000 nM.

Regarding `Cc1cc(C)c2c(c1)N(C(=O)Nc1ccc3c(c1)CN(C1CCC(=O)NC1=O)C3=O)CC2` (stereo not shown) [Compound 209], the DC50 on CK1α was less than 0.1 µM. Besides, the IC50 on CRBN/DDB1 lay in the range of 100 to 1000 nM.

Consider `O=C1CCC(N2Cc3cc(NC(=O)N4CCc5cccc(Cl)c54)ccc3C2=O)C(=O)N1` (stereo not shown) [Compound 152, 7-chloro-N-(2-(2,6-dioxopiperidin-3-yl)-1-oxoisoindolin-5-yl) indoline-1-carboxamide], for which, at CK1α, the DC50 was less than 0.1 µM. In addition, at CRBN/DDB1, the IC50 was in the range of 100 to 1000 nM.

`COC[C@@H]1Cc2cc(C(F)(F)F)ccc2N1C(=O)Nc1ccc2c(c1)CN(C1CCC(=O)NC1=O)C2=O` (stereo partly drawn) [Compound 318, (2S)—N-(2-(2,6-dioxopiperidin-3-yl)-1-oxoisoindolin-5-yl)-2-(methoxymethyl)-5-(trifluoromethyl)indoline-1-carboxamide] showed a DC50 on CK1α of less than 0.1 µM. The IC50 on CRBN/DDB1 is 100 to 1000 nM.
